Columns and labels:
Assay type in all cases: cell-based, Acer pseudoplatanus L.
[1] = system: 1,3 β-D-glucanase (EC 3.2.1.39); assay: Induction of a 1,3 β-D-glucanase response in elicited cells; settings: elicited cells; cycloheximide (1 μM); late response
Description: (§1) Vegetable material: Acer pseudoplatanus L Cells in Suspension
(§2) Test: 2.10^6 Acer pseudoplatanus L. cells were elicited under circular stirring (80 rpm), in 25 ml of culture medium (without 2,4-D) by 50 nM of 2′-fucosyl lactose (compound A) or 50 nM of methyl α-L-Fuc (1→2) β-D-Gal (1→2) β-D-Xyl trisaccharide (compound B)(synthesized according to Lopez et al., 1994) or for a variable time (0 to 42 hours) in the presence or not in the presence of an effector: cycloheximide (1 μM), okadaic acid (5 nM), staurosporine (500 nM), or boroglycine (500 nM). The elicitation experiment is stopped by putting the cells in ice. The cells recovered after decantation and taken up in approximately 1 ml of elicitation buffer are the subject of a specific protein extraction.
(§3) D-glycosylhydrolase extraction. The enzyme extracts are prepared from elicited or non-elicited cells. The cells are homogenized at 0° C. in Tris-HCl buffer (50 mM pH 7.2) containing 1 M of NaCl with a Vibracell™ Bioblock sonicator, maximum power, for 3 times 1 minute. The homogenates are centrifuged at 4° C. (12000 g, 15 minutes) then dialysed and concentrated on Ultrafree™ Millipore ultrafiltration units (cut-off threshold 10 kDa). The retentates, taken up in distilled water, are crude extracts.
1,3 β-D-glucanase activity assay. This is based on colorimetric assay (ferricyanide test of Kidby and Davidson (1973) of the substrate reducing units (laminarin or laminarin hexamer) released during the hydrolysis. The reaction medium contains the enzyme extract (1 μg of proteins), the substrate (5 μM of reduced laminarin hexamer) in 100 μl of sodium acetate buffer (0.1 M), pH 5.0); the enzymatic reaction at 40° C. develops over a variable time (1 to 3 hours).
(§4) Evaluation of the experimental data. At least 2 kinetics were carried out per sample, and per set of experiments. The reaction rate (ΔA410 minutes^−1 for example) is obtained by linear regression from 4 kinetic curves. The results are expressed by the ratio R (enzymatic activity in elicited cells/enzymatic activity in non-elicited control cells).

glycosylhydrolases = assay: Effect of effectors on the glycosylhydrolase elicitation responses; settings: okadaic acid 5 nM, boroglycine 500 nM; for Early glycosylhydrolase elicitation responses in the presence of the effector: cycloheximide 1 μM, modulation with the exception of 1,3 β-D-glucanase activity
Description: as §2, §3, §4

[2] = system: 1,4 β-D-glucanase (EC 3.2.1.4); assay: Induction of a 1,4 β-D-glucanase response in elicited cells; settings: elicited cells; cycloheximide (1 μM); late response
Description: as §1, §2, §3
1,4 β-D-glucanase activity assay. This is based on colorimetric assay (ferricyanide test of Kidby and Davidson (1973) of the cellopentaose substrate reducing units released during the hydrolysis. The reaction medium contains the enzyme extract (1 μg of proteins), reduced cellopentaose (4 μM) in 100 μl of sodium acetate buffer (0.1 M), pH 5.0); the enzymatic reaction at 40° C. develops over a variable time (1 to 3 hours).
as §4

[3] = system: Phospholipase D (E.C: 3.1.4.4); assay: Elicitation of phospholipase D activity (NBD-PE fluorescence); settings: methyl jasmonate 0 to 5 nM; 2′-fucosyl lactose 1 nM; dose-dependent
Excerpt: Vegetable material: Acer pseudoplatanus L. cells in Suspension
Phospholipase D (E.C: 3.1.4.4) (Plase D) activity: this is a phosphatidylcholine phosphatidohydrolase which releases the O-R3 group, according to the diagram below. To the extent that O-R3 is marked (a fluorochrome for example), quantifying this group is equivalent to assaying Plase D activity. For the experiments the substrate used is phosphatidylcholine conjugated to a fluorochrome, i.e. the product nitrobenzoxadiazole phosphoethanolamine (NBD-PE). The retained excitation and emission wavelengths of the fluorochrome are 460 nm and 534 nm respectively. [drawing 5]
Principle: assaying Plase D activity is equivalent to estimating the fluorescence variation at 534 nm of a reaction medium with a spectrofluorimeter (Perkin Elmer).
Test: the reaction medium in a microtitration plate well is as follows: 1.3 10^7 Acer pseudoplatanus L. cells are incubated in a 50 mM HEPES buffer, pH 6.8 enriched with CaCl2 (1 μM), ATP (2 μM), octyl-D-glucoside 50 μM, GTP (6 μM) in the presence of the NBD-PE substrate (4 μM), in the presence or absence of an elicitor (0-100 nM): 2′-fucosyl-lactose (FL), compound A; XXFGol, compound B, in the presence or not in the presence of a methyl jasmonate effector (0-5 nM). The Plase D activity assay is carried out by measuring the fluorescence at 534 nm.
Evaluation of the experimental data. For each sample at least three kinetics are recorded; the Plase D activity is given by the slope of the regression curve. The results are expressed by Δ F534 min^−1. One point on the graph corresponds to the linear regression treatment of at least 2 kinetic curves originating from 2 different samples.
The Plase D elicitation response is evaluated according to the fluorescence variation at […]; the 100% reference value corresponds to the fluorescence in the controls (non-elicited cells)

Plase D elicitation: methyl jasmonate versus 2′-fucosyl lactose [3] | Molecule | 1,3 β-D-glucanase late response R in the presence of cycloheximide [1] | Early glycosylhydrolase elicitation responses in the presence of the effector (glycosylhydrolases) | 1,4 β-D-glucanase late response R in the presence of cycloheximide [2] | Late glycosylhydrolase elicitation responses in the presence of the effector (glycosylhydrolases)
– | C[C@@H]1C[C@@H]([C@H](O)CC2CC(=O)NC(=O)C2)C(=O)[C@@H](C)C1 [cycloheximide, reference compound] | ~3 | maintained | ~2 | –
antagonistic | CC/C=C\CC1C(=O)CCC1CC(=O)OC (centres unmarked) [methyl jasmonate, reference compound] | – | – | – | –
– | C=C1[C@@H](O)[C@@H]2O[C@]3(CC[C@H](/C=C/[C@@H](C)[C@@H]4CC(C)=C[C@@]5(O[C@H](C[C@@](C)(O)C(=O)O)CC[C@H]5O)O4)O3)CC[C@H]2O[C@@H]1[C@@H](O)C[C@H](C)[C@H]1O[C@@]2(CCCCO2)CC[C@H]1C [okadaic acid] | – | modulated | – | not affected
– | boroglycine | – | modulated | – | not affected
